Measurements: patent publication US20240376097A1, “BCL-2 Inhibitor” (BeiGene Ltd., priority 2020, published 2024)
Read-outs that look alike come from different tables or passages of the source.

Legend:
[1] = system: RS4;11 (BCL-2 dependent acute lymphoblastic leukemia cell line); assay: RS4;11 Cell Proliferation Assay; format: cell-based; conditions: read-out: Cellular proliferation assay (IC50, nM) RS4
Method: Biological Example: RS4;11 Cell Proliferation Assay
(§1) The BCL-2 dependent acute lymphoblastic leukemia (ALL) cell line, RS4;11, was used to study the cellular potency of BCL-2 inhibitors. The cells (ATCC, CRL-1873) were cultured in RPMI-1640 complete medium (RPMI-1640 medium, HEPES (Gibco, 22400-105) supplemented with 10% fetal bovine serum (FBS) (Gibco, 10099-1441), 100 unit/ml penicillin and 100 μg/ml streptomycin (Gibco, 15140122)) and maintained in a humidified chamber at 37° C. containing 5% CO2. Each compound was serially diluted with 1 μM as the maximum concentration. To test the apoptotic effect of the compounds, the cells were seeded at 50,000 in 180 μl per well in 96-well plates and treated with 10-point dilution series of each compound for 48 hrs at 37° C. Cell viability was assessed after the treatment using CellTiter-GLO luminescent assay (Promega) according to the manufacturer's recommendations. Briefly, 30 μl of CellTiter-GLO reagent was added into 200 μl of cell culture. Mixture was agitated on an orbital shaker for 5 min to ensure cell lysis followed by 7 min incubation at room temperature to allow development and stabilization of luminescent signals, which corresponded to the quantity of ATP and thus the quantity of metabolically active cells. Luminescent signals were measured using PHERAstar FS reader (BMG). Mean IC50 values were determined with GraphPad Prism software.

[2] = system: BCL-2 G101V knock-in cell line H96 (derive from RS4;11); assay: Bcl 2-G101V Knock-In RS4;11 Cell Proliferation Assay; format: cell-based; conditions: RS4;11 Bcl-2 G101V knock-in clone H96, 48 hrs, CellTiter-GLO, read-out: Cellular proliferation assay (IC50, nM) RS4
Method: Biological Example: Bcl 2-G101V Knock-In RS4;11 Cell Proliferation Assay
(1) RS4;11 H96 Bcl 2-G101V Knock-In Cell Line Generation
Briefly, RS4;11 BCL2-G101V knock-in cell pool was generated using Crisper/Cas9 gene editing system and the BCL2-G101V knock-in single clone H96 was picked from the knock-in cell pool and validated by WES (whole exome-sequencing) and RNA-seq.
The BCL-2 dependent acute lymphoblastic leukemia (ALL) cell line, RS4;11(ATCC, CRL-1873), was cultured in RPMI-1640 complete medium (RPMI-1640 medium, HEPES (Gibco, 22400-105) supplemented with 10% fetal bovine serum (FBS) (Gibco, 10099-1441), 100 unit/ml penicillin and 100 μg/ml streptomycin (Gibco, 15140122)) and maintained in a humidified chamber at 37° C. containing 5% CO2.
To obtain BCL2-G101V knock-in cell pool, RS4;11 was co-transfected with the Cas9-gRNA which also expressed GFP label, and the Donor gene which contained the BCL2-G101V mutant sequence. After 48 hrs of electroporation, the GFP positive cells were collected through FACSAriaIII cell sorting system. Cell pool was recovered for 3 days and then cultured under 2 nM ABT-199 stress for 4 weeks. […] Then cells were plated in 96 well U-plate with 1 cell/well for 10000 wells for single clone selection. After 3-5 weeks growing, clones were successively screened by PCR sequencing. And three BCL2-G101V knock-in clones: H96, H142 and H233, have been picked out.
Three clones were validated by genome DNA and cDNA(mRNA) PCR sequencing, and BCL-2, BCL-xL and MCL-1 expression using Western Blot. The H96 clone was also validated by WES (whole exome-sequencing) and RNA-seq.
(2) Bcl 2-G101V Knock-In RS4;11 Cell Proliferation Assay
as §1, with “G101V knock-in” for “dependent acute lymphoblastic leukemia (ALL)”, “line H96 (derive from RS4;11) were” for “line, RS4;11, was”, “cells” for “cells (ATCC, CRL-1873)”, “μM or 10 μM” for “μM”, “90” for “180”, “100” for “200”

[3] = target: Recombinant human Bcl-2 protein (Homo sapiens (Human), UniProt P10415); assay: Bcl-2 TR-FRET Assay; format: binding
Outline: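 TR-FRET read (337 nm excitation, 520/490 nm emission) after 1 h with 0.5 nM FITC-labeled Bak peptide and Tb-cryptate anti-6His antibody. Bcl-2 at 0.05 nM had been pre-incubated 0.5 h with compound. IC50 fitted by four-parameter logistic equation.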

[4] = target: recombinant human Bcl-2-G101V protein (Homo sapiens (Human), UniProt P10415, G101V); assay: Bcl-2-G101V TR-FRET Assay; format: binding; conditions: Bcl-2 G101V mutant, TR-FRET; read-out: Biochemical assay (IC50, nM) Bcl-2 G101V
Outline: (§2)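 Compounds were titrated at increasing concentrations against the Bcl-2-G101V–ligand interaction. TR-FRET signals were then read (ex 337 nm; em 490/520 nm). Percent inhibition was derived from the 490-to-520 nm ratio, and IC50 from a four-parameter logistic equation.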

[5] = target: recombinant human Bcl-2 D103Y protein (Homo sapiens (Human), UniProt P10415, D103Y); assay: Bcl-2-D103Y Biochemical Assay (TR-FRET); format: binding
Method: Biological Example: Bcl-2-D103Y Biochemical Assay
[…]. The TR-FRET signals (ex337 nm, em490 nm/520 nm) were read on BMG PHERAstar FSX instrument. The inhibition percentage of Bcl-2 D103Y interaction with its ligand in presence of increasing concentrations of compounds was calculated based on the ratio of fluorescence at 490 nm to that at 520 nm. The IC50 for each compound was derived from fitting the data to the four-parameter logistic equation by Dotmatics.

[6] = system: recombinant human Bcl-2-G101V protein; assay: Bcl-2-G101V TR-FRET Assay; format: binding; conditions: ratio of biochemical IC50 Bcl-2 G101V / Bcl-2 WT
Outline: as §2

[7] = Homo sapiens, RS4-11, RS4;11 cells
[8] = Bcl-2 wild type, TR-FRET, read-out: Biochemical assay (IC50, nM) Bcl-2 WT

| IC50 [1, 7] [nM] | IC50 ([2]; Homo sapiens) [nM] | Compound | further results |
| --- | --- | --- | --- |
| 0.15 | 0.46 | COc1cc(CN2CCN(C3CC4(CCN(c5ccc(C(=O)NS(=O)(=O)c6ccc(NC[C@H]7CC[C@](C)(O)CC7)c([N+](=O)[O-])c6)c(Oc6cnc7[nH]cc(F)c7c6)c5)CC4)C3)[C@H](c3ccccc3C(C)C)C2)ccc1Cl [Example 278, 4-(2-((R)-4-(4-chloro-3-methoxybenzyl)-2-(2-isopropylphenyl)piperazin-1-yl)-7-azaspiro[3.5]nonan-7-yl)-2-((3-fluoro-1H-pyrrolo[2,3-b]pyridin-5-yl)oxy)-N-((4-((((1r,4r)-4-hydroxy-4-methylcyclohexyl)methyl)amino)-3-nitrophenyl)sulfonyl) benzamide] | – |
| 0.12 | 0.54 | COc1cc(CN2CCN(C3CC4(CCN(c5ccc(C(=O)NS(=O)(=O)c6ccc(NC[C@H]7CC[C@](C)(O)CC7)c([N+](=O)[O-])c6)c(Oc6cnc7[nH]cc(F)c7c6)c5)CC4)C3)[C@H](c3ccccc3C(C)C)C2)cc(C)c1OC [Example 210, 4-(2-((R)-4-(3,4-dimethoxy-5-methylbenzyl)-2-(2-isopropylphenyl)piperazin-1-yl)-7-azaspiro[3.5]nonan-7-yl)-2-((3-fluoro-1H-pyrrolo[2,3-b]pyridin-5-yl)oxy)-N-((4-((((1r,4r)-4-hydroxy-4-methylcyclohexyl)methyl)amino)-3-nitrophenyl)sulfonyl)benzamide] | – |
| 0.7 | 5.67 | COCCN1CCN(C2CC3(CCN(c4ccc(C(=O)NS(=O)(=O)c5ccc(NC[C@H]6CC[C@](C)(O)CC6)c([N+](=O)[O-])c5)c(Oc5cnc6[nH]ccc6c5)c4)CC3)C2)C(c2ccccc2C(C)C)C1 (stereo partly drawn) [Example 13, 2-((1H-pyrrolo[2,3-b]pyridin-5-yl)oxy)-N-((4-((((1r,4r)-4-hydroxy-4-methylcyclohexyl)methyl)amino)-3-nitrophenyl)sulfonyl)-4-(2-(2-(2-isopropylphenyl)-4-(2-methoxyethyl)piperazin-1-yl)-7-azaspiro[3.5]nonan-7-yl)benzamide] | – |
| – | – | 2-((1H-pyrrolo[2,3-b]pyridin-5-yl)oxy)-N-((4-((((1r,4r)-4-bydroxy-4-methylcyclohexyl)methyl)amino)-3-nitrophenyl)sulfonyl)-4-(2-((R or S)-2-(2-isopropylphenyl)-4-(2-methoxyethyl)piperazin-1-yl)-7-azaspiro[3.5]nonan-7-yl)benzamide [Example 13b] | Ratio of Bcl-2 G101V/WT [6]: 22.1; IC50 ([1]; RS4;11 cells): 0.32 nM; IC50 [2]: 2.81 nM; Ratio of Bcl-2 D103Y/Bcl-2 WT ([5]; ratio of IC50): 12 |
| 0.15 | 0.71 | COc1cc(CN2CCN(C3CC4(CCN(c5ccc(C(=O)NS(=O)(=O)c6ccc(NC[C@H]7CC[C@](C)(O)CC7)c([N+](=O)[O-])c6)c(Oc6cnc7[nH]ccc7c6)c5)CC4)C3)[C@H](c3ccccc3C(C)C)C2)ccc1Cl [Example 276, 2-((1H-pyrrolo[2,3-b]pyridin-5-yl)oxy)-4-(2-((R)-4-(4-chloro-3-methoxybenzyl)-2-(2-isopropylphenyl)piperazin-1-yl)-7-azaspiro[3.5]nonan-7-yl)-N-((4-((((1r,4r)-4-hydroxy-4-methylcyclohexyl)methyl)amino)-3-nitrophenyl)sulfonyl)benzamide] | – |
| 3 | 40.5 | CC(C)c1ccccc1C1CN(CC(C)(C)C)CCN1C1CC2(CCN(c3ccc(C(=O)NS(=O)(=O)c4ccc(NC[C@H]5CC[C@](C)(O)CC5)c([N+](=O)[O-])c4)c(Oc4cnc5[nH]ccc5c4)c3)CC2)C1 (stereo partly drawn) [Example 12, 2-((1H-pyrrolo[2,3-b]pyridin-5-yl)oxy)-N-((4-((((1r,4r)-4-hydroxy-4-methylcyclohexyl)methyl)amino)-3-nitrophenyl)sulfonyl)-4-(2-(2-(2-isopropylphenyl)-4-neopentylpiperazin-1-yl)-7-azaspiro[3.5]nonan-7-yl)benzamide] | – |

| Compound | IC50 [1, 7] [nM] | IC50 ([2]; Homo sapiens) [nM] | further results |
| --- | --- | --- | --- |
| CC(C)c1ccccc1C1CN(Cc2cnn(C)c2)CCN1C1CC2(CCN(c3ccc(C(=O)NS(=O)(=O)c4ccc(NC[C@H]5CC[C@](C)(O)CC5)c([N+](=O)[O-])c4)c(Oc4cnc5[nH]ccc5c4)c3)CC2)C1 (single isomer, unassigned) [Example 22a, 2-((1H-pyrrolo[2,3-b]pyridin-5-yl)oxy)-N-((4-((((1r,4r)-4-hydroxy-4-methylcyclohexyl)methyl)amino)-3-nitrophenyl)sulfonyl)-4-(2-((R or S)-2-(2-isopropylphenyl)-4-((1-methyl-1H-pyrazol-4-yl)methyl)piperazin-1-yl)-7-azaspiro [3.5]nonan-7-yl)benzamide] | 0.25 | 1.35 | IC50 [3, 8]: 0.0079 nM; IC50 ([3]; wild type Bcl-2, unit inferred, read-out: Bcl-2 WT): 0.0079 nM; IC50 [4]: 0.064 nM; IC50 ([5]; TR-FRET, FITC labeled Bak peptide): 0.041 nM |
| CC(C)c1ccccc1[C@@H]1CN(Cc2cccc3c2OCCO3)CCN1C1CC2(CCN(c3ccc(C(=O)NS(=O)(=O)c4ccc(NC[C@H]5CC[C@](C)(O)CC5)c([N+](=O)[O-])c4)c(Oc4cnc5[nH]ccc5c4)c3)CC2)C1 [Example 79b, 2-((1H-pyrrolo[2,3-b]pyridin-5-yl)oxy)-4-(2-(S-4-((2,3-dihydrobenzo [b][1,4]dioxin-5-yl)methyl)-2-(2-isopropylphenyl)piperazin-1-yl)-7-azaspiro[3.5]nonan-7-yl)-N-((4-((((1r,4r)-4-hydroxy-4-methylcyclohexyl)methyl)amino)-3-nitrophenyl)sulfonyl)benzamide] | 0.16 | 0.68 | IC50 [3, 8]: 0.33 nM; IC50 [4]: 19 nM |
